Test results published in ChEMBL document CHEMBL1201862, “PubChem BioAssay data set” (2004).
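Method: 48-hour compound exposure of cells in 96-well plates, five concentrations, linear interpolation of endpoints. GI50 is the concentration that inhibits growth by half.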 The source made the active and inactive calls. Rule as the data show it: active = GI50 up to about 1.1 µM and inactive = higher.

Legend:
Test in all cases: inhibition of tumour cell growth, NCI panel, 48 h
[1] = system: M14
[2] = system: HCC 2998
[3] = system: UACC-257
[4] = system: CCRF-CEM
[5] = system: NCI-H23
[6] = system: HT-29
[7] = system: TK-10
[8] = system: K562
[9] = system: SR
[10] = system: PC-3
[11] = system: SF-295
[12] = system: MCF7
[13] = system: MDA-MB-435
[14] = system: SK-OV-3
[15] = system: OVCAR-8
[16] = system: SN12C
[17] = system: NCI-H460
[18] = system: HL-60
[19] = system: Malme-3M
[20] = system: RXF 393

| SMILES | GI50 [1] | GI50 [2] | GI50 [3] | GI50 [4] | GI50 [5] | GI50 [6] | GI50 [7] | GI50 [8] | GI50 [9] | GI50 [10] | GI50 [11] | GI50 [12] | GI50 [13] | GI50 [14] | GI50 [15] | GI50 [16] | GI50 [17] | GI50 [18] | GI50 [19] | GI50 [20] |
| --- | --- | --- | --- | --- | --- | --- | --- | --- | --- | --- | --- | --- | --- | --- | --- | --- | --- | --- | --- | --- |
| COc1ccc(N2C(=O)C3c4[nH]c5ccc(C)cc5c4C4CCC(C(C)C)CC4C3C2=O)cc1 (configuration not stated) | > 100 µM (inactive) | > 100 µM (inactive) | > 100 µM (inactive) | 0.995 µM (active) | > 100 µM (inactive) | > 100 µM (inactive) | > 100 µM (inactive) | > 100 µM (inactive) | > 100 µM (inactive) | > 100 µM (inactive) | > 100 µM (inactive) | > 100 µM (inactive) | > 100 µM (inactive) | > 100 µM (inactive) | > 100 µM (inactive) | > 100 µM (inactive) | > 100 µM (inactive) | – | – | – |
| O=C1C(c2ccccc2)=[N+]([O-])c2ccccc21 | 12.4 µM (inactive) | 20 µM (inactive) | 13.3 µM (inactive) | 4.83 µM (inactive) | 19.4 µM (inactive) | 20.2 µM (inactive) | 20 µM (inactive) | 3.15 µM (inactive) | 5.6 µM (inactive) | 11.6 µM (inactive) | 17.4 µM (inactive) | 1.64 µM (inactive) | 3.37 µM (inactive) | 17.6 µM (inactive) | 18.6 µM (inactive) | 17.3 µM (inactive) | 16.5 µM (inactive) | 14.9 µM (inactive) | 17.4 µM (inactive) | – |
| O=C(NCP(=O)(Oc1ccccc1)Oc1ccccc1)OCc1ccccc1 | > 100 µM (inactive) | – | > 100 µM (inactive) | > 100 µM (inactive) | > 100 µM (inactive) | > 100 µM (inactive) | > 100 µM (inactive) | > 100 µM (inactive) | > 100 µM (inactive) | 43.9 µM (inactive) | 42.2 µM (inactive) | > 100 µM (inactive) | > 100 µM (inactive) | 33.1 µM (inactive) | > 100 µM (inactive) | > 100 µM (inactive) | > 100 µM (inactive) | > 100 µM (inactive) | 77.6 µM (inactive) | – |
| O=C1Nc2ccccc2/C1=N\c1cccc2ncccc12 | > 100 µM (inactive) | – | 41 µM (inactive) | – | 32.2 µM (inactive) | 58.3 µM (inactive) | > 100 µM (inactive) | 34 µM (inactive) | 31.6 µM (inactive) | > 100 µM (inactive) | 53.3 µM (inactive) | 50.5 µM (inactive) | 20 µM (inactive) | 26.7 µM (inactive) | > 100 µM (inactive) | > 100 µM (inactive) | 69.7 µM (inactive) | – | > 100 µM (inactive) | > 100 µM (inactive) |
| Oc1ccc(Oc2cc3c(cc2Oc2ccc(O)cc2)-c2nc-3nc3[nH]c(nc4nc(nc5[nH]c(n2)c2cc(Oc6ccc(O)cc6)c(Oc6ccc(O)cc6)cc52)-c2cc(Oc5ccc(O)cc5)c(Oc5ccc(O)cc5)cc2-4)c2cc(Oc4ccc(O)cc4)c(Oc4ccc(O)cc4)cc32)cc1 | 16.7 µM (inactive) | > 100 µM (inactive) | > 100 µM (inactive) | > 100 µM (inactive) | > 100 µM (inactive) | > 100 µM (inactive) | > 100 µM (inactive) | > 100 µM (inactive) | > 100 µM (inactive) | > 100 µM (inactive) | 37.8 µM (inactive) | > 100 µM (inactive) | > 100 µM (inactive) | > 100 µM (inactive) | > 100 µM (inactive) | > 100 µM (inactive) | > 100 µM (inactive) | – | 19.1 µM (inactive) | – |
| CC(=O)Oc1cc(S(=O)(=O)Nc2nc(N)n[nH]2)c(S)cc1Cl | > 100 µM (inactive) | > 100 µM (inactive) | > 100 µM (inactive) | > 100 µM (inactive) | > 100 µM (inactive) | > 100 µM (inactive) | > 100 µM (inactive) | > 100 µM (inactive) | > 100 µM (inactive) | > 100 µM (inactive) | > 100 µM (inactive) | > 100 µM (inactive) | > 100 µM (inactive) | – | > 100 µM (inactive) | > 100 µM (inactive) | > 100 µM (inactive) | > 100 µM (inactive) | > 100 µM (inactive) | – |
| O=C1C=CC(=O)C(CNc2ccc(C(=O)OC34CC5CC(CC(C5)C3)C4)cc2)=C1Br | 13.4 µM (inactive) | 12.4 µM (inactive) | 13.5 µM (inactive) | 1.99 µM (inactive) | 7.35 µM (inactive) | 5.01 µM (inactive) | 13.9 µM (inactive) | 5.58 µM (inactive) | – | 4.76 µM (inactive) | 14.1 µM (inactive) | 15.9 µM (inactive) | 14.7 µM (inactive) | 17.3 µM (inactive) | 5.51 µM (inactive) | 11.1 µM (inactive) | 11.5 µM (inactive) | 1.66 µM (inactive) | 4.9 µM (inactive) | 4.98 µM (inactive) |
| COC(=O)c1ccc(/N=N/N(C)COc2ccc(C#N)cc2)cc1 | > 100 µM (inactive) | 62.1 µM (inactive) | > 100 µM (inactive) | 20.3 µM (inactive) | > 100 µM (inactive) | > 100 µM (inactive) | > 100 µM (inactive) | 35.2 µM (inactive) | – | > 100 µM (inactive) | 44.8 µM (inactive) | > 100 µM (inactive) | 40.4 µM (inactive) | > 100 µM (inactive) | > 100 µM (inactive) | > 100 µM (inactive) | 18.2 µM (inactive) | 16.6 µM (inactive) | > 100 µM (inactive) | 95.5 µM (inactive) |
| C1CSCCSCCCSC2CCCCC2SC1 (configuration not stated) | > 100 µM (inactive) | > 100 µM (inactive) | > 100 µM (inactive) | > 100 µM (inactive) | 80.5 µM (inactive) | 25.4 µM (inactive) | > 100 µM (inactive) | 45 µM (inactive) | 46.5 µM (inactive) | 68.2 µM (inactive) | > 100 µM (inactive) | > 100 µM (inactive) | > 100 µM (inactive) | > 100 µM (inactive) | > 100 µM (inactive) | > 100 µM (inactive) | > 100 µM (inactive) | 17.3 µM (inactive) | – | – |
| CN(/N=C/C=N/N(C)C1=NCCN1)C1=NCCN1 | > 100 µM (inactive) | > 100 µM (inactive) | > 100 µM (inactive) | > 100 µM (inactive) | > 100 µM (inactive) | > 100 µM (inactive) | > 100 µM (inactive) | > 100 µM (inactive) | > 100 µM (inactive) | > 100 µM (inactive) | > 100 µM (inactive) | > 100 µM (inactive) | > 100 µM (inactive) | > 100 µM (inactive) | > 100 µM (inactive) | > 100 µM (inactive) | > 100 µM (inactive) | – | > 100 µM (inactive) | – |
| COC(c1ccsc1)C(C#N)(C#N)/N=C/c1ccsc1 (configuration not stated) | 17.8 µM (inactive) | 19.8 µM (inactive) | 14.7 µM (inactive) | 5.96 µM (inactive) | 13.1 µM (inactive) | 12.5 µM (inactive) | 17.7 µM (inactive) | 13 µM (inactive) | – | 14 µM (inactive) | 18.1 µM (inactive) | 2.18 µM (inactive) | 15.5 µM (inactive) | 21.1 µM (inactive) | 18.1 µM (inactive) | 16.7 µM (inactive) | 18.4 µM (inactive) | 3.18 µM (inactive) | 15.3 µM (inactive) | 12.7 µM (inactive) |
| COc1cc2[nH]c(=O)c3cc(C)cc4c(Cl)nc(c1OC)c2c43 | > 100 µM (inactive) | > 100 µM (inactive) | > 100 µM (inactive) | 27.9 µM (inactive) | 85.5 µM (inactive) | 89.9 µM (inactive) | 31.2 µM (inactive) | 67.8 µM (inactive) | – | > 100 µM (inactive) | 43.7 µM (inactive) | 32.9 µM (inactive) | 57.3 µM (inactive) | 37.9 µM (inactive) | 95.9 µM (inactive) | – | 23.4 µM (inactive) | 18.8 µM (inactive) | 18 µM (inactive) | 21 µM (inactive) |
| O=C1C=C(N2CCN(CCOCCO)CC2)C(=O)c2c(O)ccc(O)c21 | 1.56 µM (inactive) | 2.7 µM (inactive) | 1.62 µM (inactive) | 3.17 µM (inactive) | 2.21 µM (inactive) | 4.48 µM (inactive) | 9.64 µM (inactive) | 3.17 µM (inactive) | – | 3.07 µM (inactive) | 14 µM (inactive) | 1.42 µM (inactive) | 1.82 µM (inactive) | 20.6 µM (inactive) | 3.44 µM (inactive) | 4.22 µM (inactive) | 2.92 µM (inactive) | 2.52 µM (inactive) | 1.52 µM (inactive) | 13.2 µM (inactive) |
| COc1cccc(-c2cc(O)c3cc(NC(C)=O)ccc3n2)c1 | 27.2 µM (inactive) | > 100 µM (inactive) | > 100 µM (inactive) | 5.6 µM (inactive) | 26.8 µM (inactive) | 22 µM (inactive) | > 100 µM (inactive) | – | 2.34 µM (inactive) | 23.7 µM (inactive) | – | 5.65 µM (inactive) | 3.8 µM (inactive) | > 100 µM (inactive) | 25.6 µM (inactive) | 78 µM (inactive) | 33 µM (inactive) | – | 5.05 µM (inactive) | – |
| OCCCSCCO | > 100 µM (inactive) | > 100 µM (inactive) | > 100 µM (inactive) | > 100 µM (inactive) | > 100 µM (inactive) | > 100 µM (inactive) | > 100 µM (inactive) | > 100 µM (inactive) | > 100 µM (inactive) | > 100 µM (inactive) | > 100 µM (inactive) | > 100 µM (inactive) | > 100 µM (inactive) | > 100 µM (inactive) | > 100 µM (inactive) | > 100 µM (inactive) | > 100 µM (inactive) | > 100 µM (inactive) | > 100 µM (inactive) | – |
